Results reported in ChEMBL document CHEMBL3585314, “Initial development of a cytotoxic amino-seco-CBI warhead for delivery by prodrug systems” (Bioorg Med Chem, 2015).
pIC50: −log10 of the molar value. Each block holds one molecule with its values, some of them ahead of it.

What was measured:
[1] = system: LNCaP; assay: Cytotoxicity against human LNCAP cells assessed as inhibition of cell proliferation by MTS assay; assay type: functional, cell-based
[2] = system: Calf thymus DNA; assay: Binding affinity to calf thymus DNA assessed as change in melting temperature treated with (5-amino-1-(chloromethyl)-1H-benzo[e]indol-3(2H)-yl)(5-(2-(dimethylamino)ethoxy)-1H-indol-2-yl)methanone at 0.2 equiv. per base pair at pH 7 after 1 hr by spectrometric analysis; assay type: nucleic-acid assay; settings: Bos taurus
[3] = system: L1210; assay: Cytotoxicity against mouse L1210 cells after 24 hrs by MTT assay; assay type: functional, cell-based; settings: L1210, 24 h
[4] = system: Calf thymus DNA; assay: Binding affinity to calf thymus DNA assessed as change in melting temperature at 6.9 DNA to compound ratio at pH 7.2 by spectrophotometric analysis; assay type: nucleic-acid assay; settings: Bos taurus
[5] = system: L1210; assay: Cytotoxicity against mouse L1210 cells after 3 days by coulter counter analysis; assay type: functional, cell-based; settings: L1210, 72 h
[6] = system: L1210; assay: Cytotoxicity against mouse L1210 cells; assay type: functional, cell-based

SMILES: CN(C)CCOc1ccc2[nH]c(C(=O)N3CC(CCl)c4c3cc(N)c3ccccc43)cc2c1 (configuration not stated)
- pIC50 [1]: 7.74

- ΔTm [2]: 13 °C
SMILES: CN(C)CCOc1ccc2[nH]c(C(=O)N3CC4CC45C3=CC(=N)c3ccccc35)cc2c1 (configuration not stated)

SMILES: CN(C)CCOc1ccc2[nH]c(C(=O)N3CC(CCl)c4c3cc(NC(=O)OC(C)(C)C)c3ccccc43)cc2c1 (configuration not stated)
- pIC50 [1]: 6.66

SMILES: COc1cc2[nH]c(C(=O)N3C[C@H]4C[C@@]45C3=CC(=O)c3[nH]c(C(=O)N4CCc6c4c(O)c(OC)c4[nH]c(C(=O)SC)cc64)cc35)cc2cc1O
- pIC50 [3]: 11.30

SMILES: COc1c(O)c2c(c3cc(C(=O)N4CCc5c4c(O)c(OC)c4[nH]c(C(=O)N6C[C@H]7C[C@@]78C6=CC(=O)c6[nH]cc(C)c68)cc54)[nH]c13)CCN2C(N)=O [(+)-CC-1065]
- ΔTm [4]: 31 °C
- pIC50 [5]: 10.62

SMILES: COC(=O)c1cc2c([nH]1)C(=O)C=C1N(C(=O)c3cc4cc(OC)c(OC)c(OC)c4[nH]3)CC3CC123 (configuration not stated) [DUOCARMYCIN SA]
- pIC50 [6]: 11.00
